Laboratory results published in US20240294466A1, “SODIUM N-(8-(2- HYDROXYBENZOYL)AMINO)CAPRYLATE P[…] A” (Novo Nordisk A/S, priority 2021, published 2024).

Experiments:
Assay type in all cases: physicochemical
[1] = Dynamic vapour sorption (DVS) moisture uptake, method 3; conditions: for mass increase when subjected to an increase in relative humidity from about 0% to about 65% RH as determined by DVS: 25° C.; for Moisture absorbed for SNAC at 65% RH determined by DVS: DVS at 25 °C
Method: Moisture sorption/desorption data were measured by a Dynamic Vapour Sorption Advantage 1 from Surface Measurement Systems. Prior to analysis the samples were dried for up to about 48 h in desiccators containing phosphorus pentoxide. Approximately 20 mg of sample was placed into a balance pan and loaded into the instrument and the sample was then further dried for a minimum of 500 min in the instrument at 0% RH using a nitrogen purge. The resulting sample weight after the further drying was assigned as the 0% start weight and all weight gains and losses was calculated relative to this start weight. Sorption and desorption isotherms were collected over a range from 0 to 90% relative humidity (RH) using a nitrogen purge at 25° C. The threshold for equilibrium used for analysis was 0.002 to 0.0005 dm/dt.
Furthermore, samples were taken after 24 h of exposure at the indicated elevated temperatures and were subjected to dynamic vapor sorption measurements in accordance with method 3 to determine the hygroscopicity. The moisture uptake was measured at 65% RH. The hygroscopicity is decreased as the moisture absorbed at 65% RH decreases when exposing SNAC polymorphic form A to elevated temperatures for 24 h.

[2] = XRPD FWHM of the peak at 8.7±0.2° 2θ (degree of crystal imperfections), method 1; conditions: Batch 5, tray oven
Method: (§1) XRPD was performed using a Malvern Panalytical Empyrean diffractometer at ambient conditions. The diffraction pattern was measured at room temperature using an Empyrean Cu LFF HR (45 kV/40 mA) source and PIXcel3D-Medipix3 1×1 detector. The measurement was performed in the range of 2-40° 20 using a scan speed of 0.067335° 2θ/s and a step size of 0.0262606° 2θ. The samples were measured in transmission mode and with a spinner revolution time of 1 second. Approximately 200 mg of sample were placed between two sheets of Kapton Polyimide Thin-film. The measurements were performed using a Soller slit of 0.04 radians and a fixed divergence slit of 0.5° on the incident beam, and a 3 mm Anti scatter slit and a Soller slit of 0.04 radians in the diffracted beam.
The degree of crystal imperfections was assessed by use of the FWHM as more crystal imperfections might cause peak broadening and lower peak height, which leads to higher FWHM values due to fewer lattice planes with identical orientation contributing to the diffraction peak. Oppositely, in the absence of crystal imperfections, lattice planes with identical orientation increase and result in narrower and higher diffraction peaks leading to smaller FWHM values. The FWHM was calculated using the characteristic peak at 8.7±0.2° 2θ by finding the apex of the peak and measuring the height of the peak applying the x-axis as the baseline (automatic mode) (see FIG. 11) or applying a baseline spanning the two surrounding troughs (manual mode) (see FIG. 12). This value is then divided in half to find the half height. Hereafter the width of the peak at that half height is measured and reported in ° 2θ. Alternatively, the peak at 6.0±0.2° 2θ may also be used to calculate the FWHM.
(§2) Samples from a batch of SNAC polymorphic form A (Batch 5) with a FWHM of 0.97° 2θ (automatic mode) and a moisture uptake of 1.98% at 65% RH from the beginning were heated to 90, 100, 110, 120, 130, and 140° C., respectively, in a tray oven. The samples were exposed to their respective temperatures for up to 72 h. The sample size was small enough to ensure that the samples equilibrated completely, within a few of minutes, to the oven temperature. Samples were taken during the 72 h of elevated temperature exposure and subjected to XRPD measurements in accordance with method 1 to determine the polymorphic form and impact on crystal imperfections using FWHM with the x-axis as the baseline (automatic mode).
(§3) Samples from different batches of SNAC polymorphic form A were subjected to a heat treatment in a tray oven and the sample size was small enough to ensure that the samples equilibrated completely and within a couple of minutes to the oven temperature. Samples were taken from the batches before the heat treatment and after the heat treatment and subjected to XRPD measurements in accordance with method 1 to determine the polymorphic form and impact on crystal imperfections using FWHM with the x-axis as the baseline (auto mode). Furthermore, samples were also subjected to DVS measurements in accordance with method 3 to determine the impact of the heat treatment on the hygroscopicity.

[3] = Polymorphic form determined by XRPD, method 1; conditions: for Polymorphic form of SNAC determined by XRPD: Batch 5, tray oven
Method: as §1
The polymorphic form of the sample was determined by comparison of the diffractogram obtained for the sample with reference diffractograms for the SNAC polymorphs and solvates.
as §2, §3

SMILES: O=C([O-])CCCCCCCNC(=O)c1ccccc1O.[Na+] [SNAC, monosodium N-[8-(2-hydroxybenzoyl)-amino]caprylate]
- mass increase when subjected to an increase in relative humidity from about 0% to about 65% RH as determined by DVS ([1]; sample of FIG. 1): less than 1.0%
- mass increase when subjected to an increase in relative humidity from about 0% to about 65% RH as determined by DVS ([1]; sample of FIG. 2): about 1.3%
- mass increase when subjected to an increase in relative humidity from about 0% to about 65% RH as determined by DVS ([1]; sample of FIG. 3): about 2.9%
- Moisture absorbed for SNAC at 65% RH determined by DVS ([1]; Batch 5, after 24 h at 90 °C): 1.73%
- Moisture absorbed for SNAC at 65% RH determined by DVS ([1]; Batch 5, after 24 h at 100 °C): 1.37%
- Moisture absorbed for SNAC at 65% RH determined by DVS ([1]; Batch 5, after 24 h at 110 °C): 1.21%
- Moisture absorbed for SNAC at 65% RH determined by DVS ([1]; Batch 5, after 24 h at 120 °C): 0.94%
- Moisture absorbed for SNAC at 65% RH determined by DVS ([1]; Batch 5, after 24 h at 130 °C): 0.81%
- Moisture absorbed for SNAC at 65% RH determined by DVS ([1]; Batch 5, after 24 h at 140 °C): 0.74%
- FWHM (automatic mode) for the XRPD peak around 8.7 ± 0.2° 2θ ([2]; 90 °C, 0 h): 0.97 ° 2θ
- FWHM (automatic mode) for the XRPD peak around 8.7 ± 0.2° 2θ ([2]; 90 °C, 0.25 h): 0.95 ° 2θ
- FWHM (automatic mode) for the XRPD peak around 8.7 ± 0.2° 2θ ([2]; 90 °C, 0.5 h): 0.95 ° 2θ
- FWHM (automatic mode) for the XRPD peak around 8.7 ± 0.2° 2θ ([2]; 90 °C, 1 h): 0.92 ° 2θ
- FWHM (automatic mode) for the XRPD peak around 8.7 ± 0.2° 2θ ([2]; 90 °C, 6 h): 0.92 ° 2θ
- FWHM (automatic mode) for the XRPD peak around 8.7 ± 0.2° 2θ ([2]; 90 °C, 24 h): 0.89 ° 2θ
- FWHM (automatic mode) for the XRPD peak around 8.7 ± 0.2° 2θ ([2]; 90 °C, 48 h): 0.89 ° 2θ
- FWHM (automatic mode) for the XRPD peak around 8.7 ± 0.2° 2θ ([2]; 90 °C, 72 h): 0.89 ° 2θ
- FWHM (automatic mode) for the XRPD peak around 8.7 ± 0.2° 2θ ([2]; 100 °C, 0 h): 0.97 ° 2θ
- FWHM (automatic mode) for the XRPD peak around 8.7 ± 0.2° 2θ ([2]; 100 °C, 0.25 h): 1.02 ° 2θ
- FWHM (automatic mode) for the XRPD peak around 8.7 ± 0.2° 2θ ([2]; 100 °C, 0.5 h): 0.95 ° 2θ
- FWHM (automatic mode) for the XRPD peak around 8.7 ± 0.2° 2θ ([2]; 100 °C, 1 h): 0.95 ° 2θ
- FWHM (automatic mode) for the XRPD peak around 8.7 ± 0.2° 2θ ([2]; 100 °C, 6 h): 0.89 ° 2θ
- FWHM (automatic mode) for the XRPD peak around 8.7 ± 0.2° 2θ ([2]; 100 °C, 24 h): 0.81 ° 2θ
- FWHM (automatic mode) for the XRPD peak around 8.7 ± 0.2° 2θ ([2]; 100 °C, 48 h): 0.81 ° 2θ
- FWHM (automatic mode) for the XRPD peak around 8.7 ± 0.2° 2θ ([2]; 100 °C, 72 h): 0.81 ° 2θ
- FWHM (automatic mode) for the XRPD peak around 8.7 ± 0.2° 2θ ([2]; 110 °C, 0 h): 0.97 ° 2θ
- FWHM (automatic mode) for the XRPD peak around 8.7 ± 0.2° 2θ ([2]; 110 °C, 0.25 h): 0.92 ° 2θ
- FWHM (automatic mode) for the XRPD peak around 8.7 ± 0.2° 2θ ([2]; 110 °C, 0.5 h): 0.84 ° 2θ
- FWHM (automatic mode) for the XRPD peak around 8.7 ± 0.2° 2θ ([2]; 110 °C, 1 h): 0.87 ° 2θ
- FWHM (automatic mode) for the XRPD peak around 8.7 ± 0.2° 2θ ([2]; 110 °C, 6 h): 0.71 ° 2θ
- FWHM (automatic mode) for the XRPD peak around 8.7 ± 0.2° 2θ ([2]; 110 °C, 24 h): 0.66 ° 2θ
- FWHM (automatic mode) for the XRPD peak around 8.7 ± 0.2° 2θ ([2]; 110 °C, 48 h): 0.60 ° 2θ
- FWHM (automatic mode) for the XRPD peak around 8.7 ± 0.2° 2θ ([2]; 110 °C, 72 h): 0.58 ° 2θ
- FWHM (automatic mode) for the XRPD peak around 8.7 ± 0.2° 2θ ([2]; 120 °C, 0 h): 0.97 ° 2θ
- FWHM (automatic mode) for the XRPD peak around 8.7 ± 0.2° 2θ ([2]; 120 °C, 0.25 h): 0.81 ° 2θ
- FWHM (automatic mode) for the XRPD peak around 8.7 ± 0.2° 2θ ([2]; 120 °C, 0.5 h): 0.76 ° 2θ
- FWHM (automatic mode) for the XRPD peak around 8.7 ± 0.2° 2θ ([2]; 120 °C, 1 h): 0.71 ° 2θ
- FWHM (automatic mode) for the XRPD peak around 8.7 ± 0.2° 2θ ([2]; 120 °C, 6 h): 0.63 ° 2θ
- FWHM (automatic mode) for the XRPD peak around 8.7 ± 0.2° 2θ ([2]; 120 °C, 24 h): 0.58 ° 2θ
- FWHM (automatic mode) for the XRPD peak around 8.7 ± 0.2° 2θ ([2]; 120 °C, 48 h): 0.58 ° 2θ
- FWHM (automatic mode) for the XRPD peak around 8.7 ± 0.2° 2θ ([2]; 120 °C, 72 h): 0.53 ° 2θ
- FWHM (automatic mode) for the XRPD peak around 8.7 ± 0.2° 2θ ([2]; 130 °C, 0 h): 0.97 ° 2θ
- FWHM (automatic mode) for the XRPD peak around 8.7 ± 0.2° 2θ ([2]; 130 °C, 0.25 h): 0.81 ° 2θ
- FWHM (automatic mode) for the XRPD peak around 8.7 ± 0.2° 2θ ([2]; 130 °C, 0.5 h): 0.74 ° 2θ
- FWHM (automatic mode) for the XRPD peak around 8.7 ± 0.2° 2θ ([2]; 130 °C, 1 h): 0.66 ° 2θ
- FWHM (automatic mode) for the XRPD peak around 8.7 ± 0.2° 2θ ([2]; 130 °C, 6 h): 0.50 ° 2θ
- FWHM (automatic mode) for the XRPD peak around 8.7 ± 0.2° 2θ ([2]; 130 °C, 24 h): 0.50 ° 2θ
- FWHM (automatic mode) for the XRPD peak around 8.7 ± 0.2° 2θ ([2]; 130 °C, 48 h): 0.50 ° 2θ
- FWHM (automatic mode) for the XRPD peak around 8.7 ± 0.2° 2θ ([2]; 130 °C, 72 h): 0.50 ° 2θ
- FWHM (automatic mode) for the XRPD peak around 8.7 ± 0.2° 2θ ([2]; 140 °C, 0 h): 0.97 ° 2θ
- FWHM (automatic mode) for the XRPD peak around 8.7 ± 0.2° 2θ ([2]; 140 °C, 0.25 h): 0.68 ° 2θ
- FWHM (automatic mode) for the XRPD peak around 8.7 ± 0.2° 2θ ([2]; 140 °C, 0.5 h): 0.58 ° 2θ
- FWHM (automatic mode) for the XRPD peak around 8.7 ± 0.2° 2θ ([2]; 140 °C, 1 h): 0.53 ° 2θ
- FWHM (automatic mode) for the XRPD peak around 8.7 ± 0.2° 2θ ([2]; 140 °C, 6 h): 0.45 ° 2θ
- FWHM (automatic mode) for the XRPD peak around 8.7 ± 0.2° 2θ ([2]; 140 °C, 24 h): 0.45 ° 2θ
- FWHM (automatic mode) for the XRPD peak around 8.7 ± 0.2° 2θ ([2]; 140 °C, 48 h): 0.42 ° 2θ
- FWHM (automatic mode) for the XRPD peak around 8.7 ± 0.2° 2θ ([2]; 140 °C, 72 h): 0.45 ° 2θ
- Polymorphic form of SNAC determined by XRPD ([3]; 120 °C, 48 h): A & B
- Polymorphic form of SNAC determined by XRPD ([3]; 120 °C, 72 h): A & B
- Polymorphic form of SNAC determined by XRPD ([3]; 130 °C, 6 h): A & B
- Polymorphic form of SNAC determined by XRPD ([3]; 130 °C, 24 h): A & B
- Polymorphic form of SNAC determined by XRPD ([3]; 130 °C, 48 h): A & B
- Polymorphic form of SNAC determined by XRPD ([3]; 130 °C, 72 h): A & B
- Polymorphic form of SNAC determined by XRPD ([3]; 140 °C, 1 h): A & B
- Polymorphic form of SNAC determined by XRPD ([3]; 140 °C, 6 h): A & B
- Polymorphic form of SNAC determined by XRPD ([3]; 140 °C, 24 h): A & B
- Polymorphic form of SNAC determined by XRPD ([3]; 140 °C, 48 h): A & B
- Polymorphic form of SNAC determined by XRPD ([3]; 140 °C, 72 h): A & B
- onset time of conversion into polymorphic form B ([3]; at 120° C.): more than 24 h
- onset time of conversion into polymorphic form B ([3]; at 130° C.): > 1 h
- onset time of conversion into polymorphic form B ([3]; at 140° C.): > 0.5 h
- conversion of the polymorphic form ([3]; exposure for up to 72 h at temperatures up to about 110° C.): does not convert
